Laboratory results from PMC8766756, “Insights on Cancer Cell Inhibition, Subcellular Activities, and Kinase Profile of Phenylacetamides Pending 1H-Imidazol-5-One Variants” (Frontiers in Pharmacology, 2022).

Legend:
[1] = system: PC3 prostate cancer cell line; assay: SRB cytotoxicity assay; format: cell-based, human; settings: Homo sapiens, 72 h, read-out: IC50 ± SEM PC3
Protocol: (§1) The compounds were screened for their anticancer activities against a variety of cancer cell lines. The cytotoxic effect of the compounds was evaluated using the sulforhodamine B (SRB) cytotoxicity assay for breast cancer line (MCF7) and prostate cancer cell line (PC3) ([Vichai and Kirtikara, 2006]; [Rana et al., 2021]) and 3-(4,5-dimethylthiazol-2-yl)-2,5-diphenyl-2H-tetrazolium bromide (MTT) assay for the colon cancer (HCT116) cell lines ([El-Huneidi et al., 2020]). The CellTiter-Blue® cell viability assay was performed on the various leukemia cell lines, HL60, NB4, and KG1a cells ([Akter et al., 2019]). The IC50 values are illustrated in Table 1.
(§2) MCF7 (breast), PC3 (prostate), and HCT116 (colon) cancer cell lines were obtained from ATCC, Manassas, VA, USA. Cells were grown in Roswell Park Memorial Institute-1640 (RPMI-1640) medium (Thermo Fisher Scientific, Inc., Waltham, MA, USA), supplemented with 10% heat inactivated fetal bovine serum (FBS), 50 units/mL of penicillin, and […] of streptomycin and maintained at 37°C in a humidified atmosphere containing 5% CO2. The cells were maintained as “monolayer culture” by serial subculturing.
(§3) Exponentially growing MCF7 and PC3 cells were collected using 0.25% Trypsin-EDTA and were then seeded in 96-well plates at a density of 1,000–2,000 cells/well in 10% FBS and penicillin/streptomycin supplemented RPMI-1640 medium. After 24 h, the cells were treated with different concentrations of the test compounds and incubated for 72 h at 37°C in a humidified atmosphere containing 5% CO2. Next, the cells were fixed by trichloroacetic acid (TCA) (10% final concentration in wells) directly to the wells and incubated for 1 h at 4°C, then the cells were washed with distilled water five times to remove excess TCA, media, serum proteins, and metabolites, followed by air drying. After that, the fixed cells were stained with 0.4% SRB dissolved in 1% acetic acid for 10 min at room temperature, and excess stain was removed by quickly rinsing with 1% acetic acid. The residual acetic acid was removed completely by air drying the plates for 24 h, and the dye was solubilized with Tris buffer (pH = 7.4, 10 mM) for 5 min on a shaker at 1,600 rpm. The optical density of each well was measured spectrophotometrically at 564 nm with an ELISA microplate reader (ChroMate-4300, FL, USA). The IC50 values were calculated according to the equation for Boltzman sigmoidal concentration–response curve using the nonlinear regression fitting models (GraphPad®, Prism Version 5).

[2] = system: MCF7 breast cancer cell line; assay: SRB cytotoxicity assay; format: cell-based, human; settings: for IC50: Homo sapiens, MCF7, 72 h, MCF7, SRB, 72 h, read-out: IC50 ± SEM MCF7
Protocol: as §1, §2, §3

[3] = system: HCT116 colon cancer cell line; assay: MTT antiproliferative assay; format: cell-based; settings: Homo sapiens, HCT-116; HCT116, MTT, 72 h; read-out: IC50 ± SEM HCT116
Protocol: as §1, §2
The test compounds were evaluated for antiproliferative activity using the MTT viability assay against the HCT116 cell line. The cells were seeded in triplicate in 96-well plates at a density of 10 × 10^3 cells/mL in a total volume of 200 µL per well. 0.1% of DMSO was used as a vehicle control. Each well was treated with 2 µL of test compound, which had been preprepared as stock solutions in ethanol to furnish the concentration range of the study, 0.1–50 μM, and re-incubated for a further 72 h at 37°C in a humidified atmosphere containing 5% CO2. The culture medium was then removed, and the cells were washed with 100 µL of PBS, and 100 µL of MTT was added, to reach a final concentration of 1 mg/ml of MTT. The cells were incubated for 3 h in darkness at 37°C. After removal of MTT solution, solubilization was initiated through the addition of […] of DMSO, and the cells were maintained at room temperature in darkness for 20 min to ensure thorough color diffusion before reading the absorbance with a microplate reader at 570 nm. The results were expressed as percentage viability relative to vehicle control (100%). The dose–response curves were plotted, and the IC50 values (concentration of drug resulting in 50% reduction in cell survival) were obtained using the commercial software package Prism (GraphPad® Software, Inc., La Jolla, CA, USA). All the experiments were repeated in at least three independent experiments.

HL60 leukemia cell line = assay: CellTiter-Blue cell viability assay; format: cell-based; settings: Homo sapiens, HL-60, 48 h, read-out: IC50 ± SEM HL60
Protocol: as §1
HL60, NB4, and KG1a were purchased from CLS Cell Line Service GmbH (Eppelheim, Germany). All cell lines were cultured in RPMI-1640 medium supplemented with 10% FBS (Thermo Fisher Scientific) and ciprofloxacin (10 μg/ml; Cipla Limited; Mumbai, India), at 37°C with 5% CO2 in a humidified incubator.
The CellTiter-Blue® Cell Viability assay was acquired from Promega Corporation (Madison, WI, USA). The cell viability assay was performed as follows: the cells (10^4/well) were incubated with a concentration gradient of the test compounds ranging from 0.01 to 100 μM, in 96-well plates for 48 h at 37°C. Subsequently, 20 µL of the CellTiter-Blue® Cell Viability reagent was added to each well and incubated for an additional 2 h for the development of fluorescence. The fluorescence emission was measured at 590 nm using the SpectraMax® i3x Multi-Mode Microplate Reader (Molecular Devices, LLC; San Jose, CA, USA.) and plotted against the drug concentrations to determine the IC50 of the test compounds.

Src kinase = molecular target: Src kinase; design: method as in Antonarakis et al., 2013; settings: ref Antonarakis et al., 2013; read-out: Src kinase inhibition IC50; cited from earlier work
tubulin polymerization = system: tubulin polymerization; design: method as in earlier work; settings: ref Hangauer, 2007; Smolinski et al., 2018; Markham and Duggan, 2021; read-out: tubulin polymerization inhibition IC50; cited from earlier work

Row | SMILES | melting point [°C] | IC50 [3] [µM] | IC50 (HL60 leukemia cell line) [µM] | IC50 [1] [µM] | IC50 [2] [µM] | times less active than 4c (KIM-161) ([2]; on MCF7 and PC3 cells) | activity relative to KIM-161 ([2]; phenyl instead of methyl, Table 1) | IC50 (Src kinase) [µM] | IC50 (tubulin polymerization) [µM]
1 | CC1=N/C(=C\c2ccccc2)C(=O)N1c1ccc(CC(=O)NCc2ccccc2)cc1 [Compound 4a, (Z)-N-Benzyl-2-(4-(4-benzylidene-2-methyl-5-oxo-4,5-dihydro-1H-imidazol-1-yl)phenyl)acetamide] | 164 to 165 |  |  | 1.67 ± 0.66 | 11.6 ± 2.01 |  |  |  | 
2 | CC1=N/C(=C\c2ccc(Cl)cc2)C(=O)N1c1ccc(CC(=O)NCc2ccccc2)cc1 [Compound 4b, (Z)-N-Benzyl-2-(4-(4-(4-chlorobenzylidene)-2-methyl-5-oxo-4,5-dihydro-1H-imidazol-1-yl)phenyl)acetamide] | 209 to 211 | > 50 |  | 6.87 ± 0.41 | 20.8 ± 1.35 |  |  |  | 
3 | COc1cc(/C=C2\N=C(C)N(c3ccc(CC(=O)NCc4ccccc4)cc3)C2=O)ccc1O [Compound 4d, (Z)-N-Benzyl-2-(4-(4-(4-hydroxy-3-methoxybenzylidene)-2-methyl-5-oxo-4,5-dihydro-1H-imidazol-1-yl)phenyl)acetamide] |  | 6.13 ± 1.35 | 1.44 ± 0.07 | 5.83 ± 1.44 | 9.48 ± 1.16 |  |  |  | 
4 | O=C(Cc1ccc(N2C(=O)/C(=C/c3ccccc3)N=C2c2ccccc2)cc1)NCc1ccccc1 [Compound 4e, (Z)-N-Benzyl-2-(4-(4-benzylidene-5-oxo-2-phenyl-4,5-dihydro-1H-imidazol-1-yl)phenyl)acetamide] | 218 to 219 |  |  | 41.7 ± 2.99 | 34.9 ± 8.08 |  |  |  | 
5 | O=C(Cc1ccc(-c2ccc(OCCN3CCOCC3)cc2)cn1)NCc1ccccc1 [KX2-391, Tirbanibulin] |  |  |  |  |  |  |  | 0.025 | 0.25

Further lines, with some results ahead:

Row | melting point [°C] | IC50 [3] [µM] | IC50 (HL60 leukemia cell line) [µM] | SMILES | IC50 [1] [µM] | IC50 [2] [µM] | times less active than 4c (KIM-161) ([2]; on MCF7 and PC3 cells) | activity relative to KIM-161 ([2]; phenyl instead of methyl, Table 1) | IC50 (Src kinase) [µM] | IC50 (tubulin polymerization) [µM]
6 | 189 to 200 |  |  | COc1ccc(C=C(NC(C)=O)C(=O)Nc2ccc(CC(=O)NCc3ccccc3)cc2)cc1 (stereo in doubt) [Compound 5, (E)-2-acetamido-N-(4-(2-(benzylamino)-2-oxoethyl)phenyl)-3-(4-methoxyphenyl) acrylamide] | 41.1 ± 9.55 | 44.3 ± 9.2 | 20–40 times |  |  | 
7 | 218 to 220 |  |  | O=C(Cc1ccc(N2C(=O)/C(=C/c3ccc(Cl)cc3)N=C2c2ccccc2)cc1)NCc1ccccc1 [Compound 4f, (Z)-N-Benzyl-2-(4-(4-(4-chlorobenzylidene)-5-oxo-2-phenyl-4,5-dihydro-1H-imidazol-1-yl)phenyl)acetamide] | 74.2 ± 12.3 | 44.2 ± 8.67 |  |  |  | 
8 | 193 |  |  | COc1ccc(/C=C2\N=C(c3ccccc3)N(c3ccc(CC(=O)NCc4ccccc4)cc3)C2=O)cc1 [Compound 4g, (Z)-N-Benzyl-2-(4-(4-(4-methoxybenzylidene)-5-oxo-2-phenyl-4,5-dihydro-1H-imidazol-1-yl)phenyl)acetamide] | 38.7 ± 5.01 | 32.1 ± 3.98 |  | less than one-tenth |  | 
9 | 109 to 112 |  |  | COc1cc(/C=C2\N=C(c3ccccc3)N(c3ccc(CC(=O)NCc4ccccc4)cc3)C2=O)ccc1O [Compound 4h, (Z)-N-Benzyl-2-(4-(4-(4-hydroxy-3-methoxybenzylidene)-5-oxo-2-phenyl-4,5-dihydro-1H-imidazol-1-yl)phenyl)acetamide] | 37.5 ± 15.4 | 35.1 ± 4.57 |  |  |  | 
